Results taken from patent US20030013660A1, “Dioxolane analogs for improved inter-cellular delivery” (Shire BioChem Inc., priority 2000, published 2003).
pIC50: −log10 of the molar value. Like-named read-outs stand apart in the source and are kept apart here.

Legend:
Assay in all cases: 3H-TdR (3H-thymidine) incorporation assay at 72 hr
[1] = test system: MCF-7; type: cell-based, Human
[2] = test system: SF-268; type: cell-based, Human
[3] = test system: H-460; type: cell-based, Human
[4] = test system: CEM/dCK-; type: cell-based; conditions: for Factor* (Resistance Factor = Ratio of dCK- on Wild-type CCRF-CEM): ratio of IC50 CEM/dCK- to CCRF-CEM, 24 h
Protocol: (§1) Table of IC50 Values (μM) for Controls
(§2) Exposition of 24 hr to drug, wash, incubated for another 48 hr (total of 72 hr assay)
(§3) (3H-Thymidine Incorporation Assay)

[5] = test system: CCRF-CEM; type: cell-based
Protocol: as §1, §2, §3

[6] = Homo sapiens, MCF7, read-out: IC50 MCF-7 24 h, 24 h drug exposure, wash, another 48 hr, 3H-TdR incorporation at 72 hr
[7] = Homo sapiens, SF-268, read-out: IC50 SF-268 24 h, 24 h drug exposure, wash, another 48 hr, 3H-TdR incorporation at 72 hr
[8] = read-out: IC50 SF-268 24 h, 24 h drug exposure, wash, another 48 hr, 3H-TdR incorporation at 72 hr
[9] = Homo sapiens, NCI-H460, read-out: IC50 H-460 24 h, 24 h drug exposure, wash, another 48 hr, 3H-TdR incorporation at 72 hr
[10] = read-out: IC50 H-460 24 h, 24 h drug exposure, wash, another 48 hr, 3H-TdR incorporation at 72 hr
[11] = Homo sapiens, CCRF-CEM, read-out: IC50 CEM/dCK- 24 h, 24 h drug exposure, wash, another 48 hr, deoxycytidine kinase-deficient CCRF-CEM
[12] = Homo sapiens, CCRF-CEM, read-out: IC50 CCRF-CEM 24 h, 24 h drug exposure, wash, another 48 hr, 3H-TdR incorporation at 72 hr
[13] = read-out: IC50 CCRF-CEM 24 h, 24 h drug exposure, wash, another 48 hr, 3H-TdR incorporation at 72 hr
[14] = read-out: IC50 CEM/dCK- 24 h, 24 h drug exposure, wash, another 48 hr, deoxycytidine kinase-deficient CCRF-CEM

Row | Structure (SMILES) | pIC50 [1, 6] | pIC50 ([1]; read-out: IC50 MCF-7 24 h, 24 h drug exposure, wash, another 48 hr, 3H-TdR incorporation at 72 hr) | pIC50 [2, 7] | pIC50 [2, 8] | pIC50 [3, 9] | pIC50 [3, 10] | pIC50 [4, 11] | Factor* (Resistance Factor = Ratio of dCK- on Wild-type CCRF-CEM) [4] | pIC50 [5, 12] | pIC50 [5, 13] | pIC50 ([1]; Homo sapiens, MCF7, read-out: IC50 MCF-7 24 h) | pIC50 ([2]; Homo sapiens, SF-268, read-out: IC50 SF-268 24 h) | pIC50 ([3]; Homo sapiens, NCI-H460, read-out: IC50 H-460 24 h) | pIC50 ([4]; Homo sapiens, CCRF-CEM, read-out: IC50 CEM/dCK- 24 h) | pIC50 ([5]; Homo sapiens, CCRF-CEM, read-out: IC50 CCRF-CEM 24 h) | pIC50 [4, 14]
1 | COC(OC)(OC[C@H]1OC[C@@H](n2ccc(N)nc2=O)O1)c1ccccc1 [Compound 139, 4-AMINO-1-[2- (DIMETHOXY-PHENYL- METHOXYMETHYL)- [1,3]DIOXOLAN-4-YL]-1H- PYRIMIDIN-2-ONE] | 5.85 | 5.77 | 5.89 | 5.77 | 6.09 | 6.29 | < 4.00 | >250 | 6.40 | 6.38 | – | – | – | – | – | –
2 | COc1ccc(OC(=O)Nc2ccn([C@@H]3CO[C@H](COC(=O)Oc4ccc(OC)cc4)O3)c(=O)n2)cc1 [Compound 63] | – | – | – | – | – | – | – | 2,778 | – | – | 6.43 | 7.12 | 6.96 | < 4.00 | 7.44 | –
3 | Nc1ccn([C@@H]2CO[C@H](COC/C=C/c3ccccc3)O2)c(=O)n1.O=C(O)C(F)(F)F [Compound 90, 4-AMINO-1-[2-(3- CINNAMYLOXYMETHYL)- [1,3]DIOXOLAN-4-YL]-1H- PYRIMIDIN-2-ONE TRIFLUOROACETATE SALT] | 4.21 | – | < 4.00 | – | 4.02 | – | < 4.00 | 1.5 | 4.19 | – | – | – | – | – | – | –
4 | CCOC(=O)OC[C@H]1OC[C@@H](n2ccc(N)nc2=O)O1 [Compound 46, CARBONIC ACID 4-(4- AMINO-2-OXO-2H- PYRIMIDIN-1-YL)- [1,3]DIOXOLAN-2- YLMETHYL ESTER ETHYL ESTER] | 6.80 | – | 6.25 | – | 7.07 | – | < 4.00 | 1,667 | 7.22 | – | – | – | – | – | – | –
5 | COc1ccc(C(OC[C@H]2OC[C@@H](n3ccc(N)nc3=O)O2)(c2ccccc2)c2ccc(OC)cc2)cc1 [Compound 123, 4-AMINO-1-{2-[BIS-(4- METHOXY-PHENYL)-PHENYL- METHOXYMETHYL]- [1,3]DIOXOLAN-4-YL}-1H- PYRIMIDIN-2-ONE] | 5.85 | – | 5.70 | – | 6.00 | – | 4.82 | 17 | 6.06 | – | – | – | – | – | – | –
6 | CCOC(=O)Nc1ccn([C@@H]2CO[C@H](COC(=O)OCC)O2)c(=O)n1 [Compound 47, CARBONIC ACID 4-(4- ETHOXYCARBONYLAMINO-2- OXO-2H-PYRIMIDIN-1-YL)- [1,3]DIOXOLAN-2- YLMETHYL ESTER ETHYL ESTER] | 5.62 | – | 4.42 | – | 5.74 | – | < 4.00 | 34 | 5.54 | – | – | – | – | – | – | –
7 | O=C(O)C(F)(F)F.O=c1nc(NC/C=C/c2ccccc2)ccn1[C@@H]1CO[C@H](CO)O1 [Compound 89, 1-(2-HYDROXYMETHYL- [1,3]DIOXOLAN-4-YL)-4- (3-CINNAMYL)-1H- PYRIMIDIN-2-ONE TRIFLUORO-ACETATE SALT] | 6.66 | – | 4.96 | – | 5.42 | – | < 4.00 | 40 | 5.60 | – | – | – | – | – | – | –
8 | CC(C)(C)OC(=O)N(CCCCCC(=O)Nc1ccn([C@@H]2CO[C@H](COC(=O)CCCCCN(Cc3ccccc3)C(=O)OC(C)(C)C)O2)c(=O)n1)Cc1ccccc1 [Compound 78, 6-(Benzyl-tert-butoxycarbonyl-amino)-hexanoic acid 4-{4-[6-(benzyl-tert-butoxycarbonyl-amino)-hexanoylamino]-2-oxo-2H-pyrimidin-1-yl}-[1,3]dioxolan-2-ylmethyl ester] | 7.35 | – | 7.02 | – | 7.38 | – | 4.89 | 351 | 7.43 | – | – | – | – | – | – | –
9 | CCC(C)(C)OC(C)OC[C@H]1OC[C@@H](n2ccc(N)nc2=O)O1 (mixture of isomers) [Compound 117, 4-AMINO-1-{2-[1-(1,1- DIMETHYL-PROPOXY)- ETHOXYMETHYL]- [1,3]DIOXOLAN-4-YL}-1H- PYRIMIDIN-2-ONE] | 6.34 | – | 6.17 | – | 6.34 | – | 4.05 | 494 | 6.74 | – | – | – | – | – | – | –
10 | Nc1cc[n+]([C@@H]2CO[C@H](COC(c3ccccc3)(c3ccccc3)c3ccccc3)O2)c(=O)[nH]1 (stereo in doubt) [Compound 53, 4-AMINO-1-(2- TRITYLOXYMETHYL- [1,3]DIOXOLAN-4-YL)-1H- PYRIMIDIN-2-ONE] | 5.00 | – | 5.00 | – | 5.05 | – | 4.43 | 19 | 5.70 | – | – | – | – | – | – | –
11 | Nc1ccn([C@@H]2CO[C@H](COC(=O)Oc3ccccc3)O2)c(=O)n1 [Compound 42, CARBONIC ACID 4-(4- AMINO-2-OXO-2H- PYRIMIDIN-1-YL)- [1,3]DIOXOLAN-2- YLMETHYL ESTER PHENYL ESTER] | – | – | 7.66 | 7.59 | 8.00 | 8.15 | 4.09 | – | 8.66 | 8.64 | – | – | – | – | – | < 4.00
12 | CCOC(OCC)OC[C@H]1OC[C@@H](n2ccc(N)nc2=O)O1 [Compound 39, 4-AMINO-1-(2- DIETHOXYMETHOXYMETHYL- [1,3]DIOXOLAN-4-YL)-1H- PYRIMIDIN-2-ONE] | – | – | 6.49 | 6.41 | 6.80 | 6.92 | < 4.00 | – | 7.33 | 7.21 | – | – | – | – | – | –
13 | CC(C)OC(=O)OC[C@H]1OC[C@@H](n2ccc(N)nc2=O)O1.O=C(O)C(F)(F)F [Compound 67, CARBONIC ACID 4-(4- AMINO-2-OXO-2H- PYRIMIDIN-1-YL)- [1,3]DIOXOLAN-2- YLMETHYL ESTER ISOPROPYL ESTER TRIFLUOROACETATE SALT] | – | – | 6.40 | – | 7.09 | – | < 4.00 | 556 | 6.74 | – | – | – | – | – | – | –
14 | Nc1ccn([C@@H]2CO[C@H](COC(=O)OCc3ccccc3)O2)c(=O)n1 [Compound 57, CARBONIC ACID 4-(4- AMINO-2-OXO-2H- PYRIMIDIN-1-YL)- [1,3]DIOXOLAN-2- YLMETHYL ESTER BENZYL ESTER] | 7.72 | – | 7.33 | – | – | – | 4.49 | – | 8.32 | – | – | – | – | – | – | –
15 | CCCCCCCCCCNC(=O)OC[C@H]1OC[C@@H](n2ccc(N)nc2=O)O1 [Compound 137, DECYL-CARBAMIC ACID 4- (4-AMINO-2-OXO-2H- PYRIMIDIN-1-YL)- [1,3]DIOXOLAN-2- YLMETHYL ESTER] | – | – | 4.74 | 4.80 | – | – | 4.08 | – | 5.30 | 5.19 | – | – | – | – | – | 4.28
16 | CCCCC(CC)C(=O)Nc1ccn([C@@H]2CO[C@H](CO)O2)c(=O)n1 (stereo in doubt) [Compound 99, 2-ETHYL-HEXANOIC ACID [1-(2-HYDROXYMETHYL- [1,3]DIOXOLAN-4-YL)-2- OXO-1,2-DIHYDRO- PYRIMIDIN-4-YL]-AMIDE] | 5.20 | – | 4.48 | – | – | – | < 4.00 | >20 | 5.30 | – | – | – | – | – | – | –
